Activity calls are given as the source filed them. The calls are words filed in the database; no cut-off is given here. Bounds are passed on as bounds.

Here are results for 30 compounds from ChEMBL document CHEMBL3399932, “Synthesis of new N-benzylpiperidine derivatives as cholinesterase inhibitors with β-amyloid anti-aggregation properties and beneficial effects on memory in vivo” (Bioorg Med Chem, 2015).

The target of data set [1] is Cholinesterase (Equus caballus) (UniProt P81908). As to the kind of experiment: Inhibition of horse serum BChE using butyrylthiocholine iodide as substrate preincubated at 10^-4 mol/L for 5 mins by Ellman method.
A further data set concerns the target Acetylcholinesterase (Electrophorus electricus, UniProt O42275).
A further data set has as its target Cholinesterase (Equus caballus, UniProt P81908).
Data set [2] has as its target Acetylcholinesterase (Electrophorus electricus) (UniProt O42275). As to the kind of experiment: Inhibition of electric eel AChE using acetylthiocholine iodide as substrate preincubated at 10^-4 mol/L for 5 mins by Ellman method. (Ellman's reagent forms a yellow product with free thiols.)
Data set [3] has as its target Cholinesterase (Equus caballus) (UniProt P81908). Briefly: Inhibition of horse serum BChE using butyrylthiocholine iodide as substrate preincubated at 0.5 to 1 uM for 5 mins by Lineweaver-Burk plot method.
The target of data set [4] is Acetylcholinesterase (Electrophorus electricus) (UniProt O42275). Particulars: 5 to 10 uM.
For data set [5] the following is noted: PAMPA, 2 h. (In PAMPA a lipid-coated filter parts donor from acceptor wells.)
Data set [6] relates to Mus musculus. Briefly: Effect on scopolamine-induced cognitive dysfunction in albino Swiss CD-1 mouse assessed as reduction in step-through latency time at 5 to 30 mg/kg, ip administered 1 hr before the acquisition trial by passive avoidance test. The class given is functional, organism-based.
Data set [7] addresses Amyloid-beta precursor protein (Homo sapiens) (UniProt P05067). Briefly: Inhibition of self-induced beta-amyloid (1 to 42) (unknown origin) aggregation by thioflavin-T assay.
Data set [8] relates to Mus musculus. As to the kind of experiment: Effect on scopolamine-induced cognitive dysfunction in albino Swiss CD-1 mouse assessed as reduction in step-through latency time during retention trial at 5 to 30 mg/kg, ip administered 1 hr before the acquisition trial measured 24 hrs after acquisition trial over 180 seconds by passive avoidance test. The format is functional, organism-based.

Data set [9] has as its system Mus musculus. As to the kind of experiment: Sedative activity in albino Swiss CD-1 mouse assessed as decrease in spontaneous locomotor activity at 30 mg/kg, ip administered 1 hr before test measured at 18 to 30 mins of test. The format is ADME, organism-based. Conditions: in vivo. Set-up: dose 30 mg/kg, route intraperitoneal.
For data set [10], the system named is Mus musculus. Briefly: Sedative activity in albino Swiss CD-1 mouse assessed as decrease in spontaneous locomotor activity at 30 mg/kg, ip administered 1 hr before test measured up to 6 mins of test. The class given is ADME, organism-based. Set-up: dose 30 mg/kg, route intraperitoneal. Conditions: in vivo.
The subject of data set [11] is Mus musculus. As to the kind of experiment: Toxicity in albino Swiss CD-1 mouse assessed as decrease in impairment of motor coordination at 6 to 18 rpm at 30 to 100 mg/kg, ip administered 1 hr before test by rotarod test. Set-up: dose 30-100 mg/kg, route intraperitoneal. The format is organism-based. Particulars: in vivo. For orientation: The rotarod test checks motor coordination on a turning rod.

In data set [12] the test system is Mus musculus. As to the kind of experiment: Toxicity in albino Swiss CD-1 mouse assessed as decrease in impairment of motor coordination at 24 rpm at 100 mg/kg, ip administered 1 hr before test by rotarod test. Particulars: in vivo. The class given is organism-based. Also noted: dose 100 mg/kg, route intraperitoneal.
The test system of data set [13] is Mus musculus. As to the kind of experiment: Toxicity in albino Swiss CD-1 mouse assessed as decrease in impairment of motor coordination at 24 rpm at 30 mg/kg, ip administered 1 hr before test by rotarod test. The class given is organism-based. Set-up: dose 30 mg/kg, route intraperitoneal; scale not given: the % may be the effect or the level left. Particulars: in vivo.

Acetylcholinesterase (Electrophorus electricus), sequence (O42275 24-633 limits assumed): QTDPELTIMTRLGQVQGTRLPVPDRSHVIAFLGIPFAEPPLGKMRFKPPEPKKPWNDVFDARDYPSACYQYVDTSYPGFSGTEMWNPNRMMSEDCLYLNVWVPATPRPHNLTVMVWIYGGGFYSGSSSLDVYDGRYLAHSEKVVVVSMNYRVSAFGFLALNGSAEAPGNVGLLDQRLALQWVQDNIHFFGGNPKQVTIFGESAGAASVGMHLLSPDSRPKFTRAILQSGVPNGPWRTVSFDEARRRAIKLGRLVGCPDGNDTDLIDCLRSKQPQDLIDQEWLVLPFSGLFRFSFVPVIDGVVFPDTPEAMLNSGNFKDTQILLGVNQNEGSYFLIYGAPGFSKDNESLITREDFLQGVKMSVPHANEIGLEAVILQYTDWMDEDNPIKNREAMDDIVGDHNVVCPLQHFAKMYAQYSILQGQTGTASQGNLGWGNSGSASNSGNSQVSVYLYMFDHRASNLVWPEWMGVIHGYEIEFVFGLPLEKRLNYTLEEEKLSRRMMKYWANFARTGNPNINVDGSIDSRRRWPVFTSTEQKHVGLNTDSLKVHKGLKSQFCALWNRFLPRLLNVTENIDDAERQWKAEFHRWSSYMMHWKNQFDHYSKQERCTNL
Cholinesterase, sequence (P81908 whole entry): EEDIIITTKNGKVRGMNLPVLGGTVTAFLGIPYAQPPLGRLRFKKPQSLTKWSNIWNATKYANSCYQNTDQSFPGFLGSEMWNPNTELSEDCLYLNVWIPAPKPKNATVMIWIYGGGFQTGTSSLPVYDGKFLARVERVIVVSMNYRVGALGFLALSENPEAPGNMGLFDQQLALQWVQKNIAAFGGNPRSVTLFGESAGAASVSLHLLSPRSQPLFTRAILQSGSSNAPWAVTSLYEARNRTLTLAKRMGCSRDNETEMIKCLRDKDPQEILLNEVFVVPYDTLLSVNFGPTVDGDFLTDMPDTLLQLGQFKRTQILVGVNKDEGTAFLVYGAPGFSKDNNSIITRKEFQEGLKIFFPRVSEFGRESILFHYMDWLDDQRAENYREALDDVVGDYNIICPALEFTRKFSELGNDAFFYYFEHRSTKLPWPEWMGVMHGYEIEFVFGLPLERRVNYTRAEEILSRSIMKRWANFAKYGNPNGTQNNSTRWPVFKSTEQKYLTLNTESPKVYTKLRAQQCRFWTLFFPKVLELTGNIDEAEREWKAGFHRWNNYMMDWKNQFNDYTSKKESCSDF
Acetylcholinesterase, sequence (O42275 whole entry): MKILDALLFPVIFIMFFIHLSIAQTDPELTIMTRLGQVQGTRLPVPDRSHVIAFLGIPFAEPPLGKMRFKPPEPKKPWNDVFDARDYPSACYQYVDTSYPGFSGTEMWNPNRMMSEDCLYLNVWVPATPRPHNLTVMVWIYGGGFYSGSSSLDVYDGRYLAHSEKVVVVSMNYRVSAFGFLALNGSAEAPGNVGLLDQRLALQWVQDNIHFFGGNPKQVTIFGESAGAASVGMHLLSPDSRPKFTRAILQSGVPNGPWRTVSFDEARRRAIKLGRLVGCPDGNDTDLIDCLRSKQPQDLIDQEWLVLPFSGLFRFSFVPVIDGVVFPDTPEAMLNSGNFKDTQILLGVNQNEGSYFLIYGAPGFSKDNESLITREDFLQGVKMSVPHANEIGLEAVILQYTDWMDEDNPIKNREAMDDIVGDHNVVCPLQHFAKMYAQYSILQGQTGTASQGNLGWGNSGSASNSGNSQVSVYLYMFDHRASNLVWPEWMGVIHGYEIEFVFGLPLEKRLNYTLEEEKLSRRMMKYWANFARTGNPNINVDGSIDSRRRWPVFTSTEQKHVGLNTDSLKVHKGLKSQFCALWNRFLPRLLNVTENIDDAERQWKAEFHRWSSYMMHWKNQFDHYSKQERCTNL
Cholinesterase (Equus caballus), sequence (P81908 whole entry): as the sequence (P81908 whole entry) above
Amyloid-beta precursor protein (Homo sapiens), sequence (P05067 whole entry): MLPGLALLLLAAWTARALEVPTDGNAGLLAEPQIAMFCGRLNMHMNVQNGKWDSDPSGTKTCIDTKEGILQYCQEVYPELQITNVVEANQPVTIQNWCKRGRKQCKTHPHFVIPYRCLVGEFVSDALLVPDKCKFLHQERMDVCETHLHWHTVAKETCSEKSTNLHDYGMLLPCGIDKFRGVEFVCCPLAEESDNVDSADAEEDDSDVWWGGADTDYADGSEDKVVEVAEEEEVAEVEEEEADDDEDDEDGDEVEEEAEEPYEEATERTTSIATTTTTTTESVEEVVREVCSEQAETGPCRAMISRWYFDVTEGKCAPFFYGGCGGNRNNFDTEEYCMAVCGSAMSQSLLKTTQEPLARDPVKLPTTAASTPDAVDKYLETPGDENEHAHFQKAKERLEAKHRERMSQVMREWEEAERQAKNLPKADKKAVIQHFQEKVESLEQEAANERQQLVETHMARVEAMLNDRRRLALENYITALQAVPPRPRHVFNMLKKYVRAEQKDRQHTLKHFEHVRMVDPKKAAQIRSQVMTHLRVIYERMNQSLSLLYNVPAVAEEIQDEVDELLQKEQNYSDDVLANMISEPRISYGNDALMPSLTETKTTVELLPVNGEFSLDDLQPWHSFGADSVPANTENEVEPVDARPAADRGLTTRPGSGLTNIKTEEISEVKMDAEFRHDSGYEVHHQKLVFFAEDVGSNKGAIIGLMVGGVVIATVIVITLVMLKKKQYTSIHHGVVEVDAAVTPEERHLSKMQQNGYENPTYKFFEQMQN

`O=C1c2ccccc2C(=O)N1CCCCCNC1CCN(Cc2ccccc2)CC1` yielded an inhibition in [1] below 60%. Half-maximal inhibition against Acetylcholinesterase (IC50) was put at 69 µM.

For `Fc1ccccc1CN1CCC(NCCCCCCn2ccc3ccccc32)CC1`, the IC50 was found to be 42 µM on Acetylcholinesterase and 3.41 µM against Cholinesterase.

Regarding `c1ccc(CN2CCC(NCCCCCCn3ccc4ccccc43)CC2)cc1`, the IC50 at Acetylcholinesterase was 0.01 µM; against Cholinesterase, 15.3 µM.

As for `COc1ccc(CN2CCC(NCCCCCCCCN3C(=O)c4ccccc4C3=O)CC2)cc1`, the values for the IC50 at Acetylcholinesterase and at Cholinesterase were 43.3 µM and 5.65 µM, respectively.

`c1ccc(CN2CCC(NCCCn3ccc4ccccc43)CC2)cc1` yielded an inhibition in [2] below 60%. On Cholinesterase, this compound showed an IC50 of 0.002 µM.

Turning to `c1ccc(CN2CCC(NCCCCCn3ccc4ccccc43)CC2)cc1`, the IC50 turned out to be 0.02 µM on Acetylcholinesterase and 1.83 µM on Cholinesterase.

With `COc1ccc(CN2CCC(NCCCCCCN3C(=O)c4ccccc4C3=O)CC2)cc1`, in [2], the inhibition was below 60%. Also, the midpoint of inhibition against Cholinesterase, the IC50, lay at 7.39 µM.

Consider `O=C1c2ccccc2C(=O)N1CCCNC1CCN(Cc2ccc(O)cc2)CC1`, for which the inhibition entry in data set [3] and in data set [4] was “Active” each time. In addition, the IC50 was determined as 4.52 µM against Acetylcholinesterase and 9.37 µM against Cholinesterase.

As for `c1ccc(CN2CCC(NCCCCCCCCn3ccc4ccccc43)CC2)cc1`, the IC50 was 70.1 µM against Acetylcholinesterase and 1.08 µM against Cholinesterase.

For `Clc1cccc(CN2CCC(NCCCCCCCCn3ccc4ccccc43)CC2)c1`, the IC50 against Acetylcholinesterase was 21.7 µM; at Cholinesterase, 0.75 µM.

Regarding `O=C1c2ccccc2C(=O)N1CCCCCCNC1CCN(Cc2ccccc2)CC1`, the figures for the IC50 against Acetylcholinesterase and at Cholinesterase were 45.4 µM and 12.8 µM, respectively.

As to `CC(=O)[C@H]1CC[C@H]2[C@@H]3CCC4=CC(=O)CC[C@]4(C)[C@H]3CC[C@]12C` [PROGESTERONE], in data set [5], the “log Pe” value was -5.1.

For `O=C1c2ccccc2C(=O)N1CCCCCCCCNC1CCN(Cc2ccccc2)CC1`, the IC50 against Acetylcholinesterase worked out at 17.7 µM; at Cholinesterase, 1.98 µM.

`COc1ccc(CN2CCC(NCCCCCCn3ccc4ccccc43)CC2)cc1` had an inhibition in [2] below 60%. Further, the midpoint of inhibition at Cholinesterase, the IC50, lay at 0.52 µM.

`Clc1cccc(CN2CCC(NCCCCCCn3ccc4ccccc43)CC2)c1`: the IC50 at Acetylcholinesterase was found to be 53.2 µM; against Cholinesterase, 0.83 µM.

Consider `O=C1c2ccccc2C(=O)N1CCCCCCNC1CCN(Cc2ccccc2F)CC1`, for which the half-inhibitory concentration (IC50) amounted to 85.3 µM against Acetylcholinesterase and 4 µM on Cholinesterase.

For the compound `O=C1c2ccccc2C(=O)N1CCCCCCNC1CCN(Cc2ccc(O)cc2)CC1`, the figures for the IC50 on Acetylcholinesterase and on Cholinesterase were 29.8 µM and 2.32 µM, respectively.

Turning to `O=C1c2ccccc2C(=O)N1CCCCCCNC1CCN(Cc2cccc(Cl)c2)CC1`, the figures for the IC50 at Acetylcholinesterase and on Cholinesterase were 54.4 µM and 2.73 µM, respectively.

On to `COc1ccc(CN2CCC(NCCCCCCCCn3ccc4ccccc43)CC2)cc1`, for which the inhibition in data set [2] was below 60%. Moreover, the IC50 against Cholinesterase worked out at 0.34 µM.

For the compound `O=C1c2ccccc2C(=O)N1CCCCCCCCNC1CCN(Cc2ccc(O)cc2)CC1`, the IC50 is 23.5 µM on Acetylcholinesterase and 0.81 µM against Cholinesterase.

Consider `O=C1c2ccccc2C(=O)N1CCCCCCCCNC1CCN(Cc2ccccc2F)CC1`, for which the results for the IC50 at Acetylcholinesterase and against Cholinesterase were 43.4 µM and 1.87 µM, respectively.

For the compound `O=C1c2ccccc2C(=O)N1CCCNC1CCN(Cc2ccccc2F)CC1`, the half-inhibitory concentration (IC50) against Acetylcholinesterase amounted to 23.1 µM; at Cholinesterase, 10.5 µM.

For `O=C1c2ccccc2C(=O)N1CCCNC1CCN(Cc2cccc(Cl)c2)CC1`, the IC50 on Acetylcholinesterase stood at 68.3 µM; at Cholinesterase, 4.53 µM.

In the case of `O=C1c2ccccc2C(=O)N1CCCNC1CCN(Cc2ccccc2)CC1`, the IC50 at Acetylcholinesterase stood at 8.11 µM; at Cholinesterase, 51.8 µM.

In data set [2], `Oc1ccc(CN2CCC(NCCCCCCn3ccc4ccccc43)CC2)cc1` displayed an inhibition below 60%. The compound also showed an IC50 against Cholinesterase of 1.78 µM.

In data set [2], `COc1ccc(CN2CCC(NCCCN3C(=O)c4ccccc4C3=O)CC2)cc1` displayed an inhibition below 60%. Further, half-maximal inhibition at Cholinesterase (IC50) required 26.8 µM.

For the compound `CC(C)NCC(O)COc1cccc2ccccc12` (stereo not drawn) [PROPRANOLOL], the “log Pe” value in [5] was -3.5.

In the case of `Fc1ccccc1CN1CCC(NCCCCCCCCn2ccc3ccccc32)CC1`, the IC50 on Acetylcholinesterase stood at 29.6 µM; against Cholinesterase it was 0.93 µM.

In turn, `Oc1ccc(CN2CCC(NCCCCCCCCn3ccc4ccccc43)CC2)cc1` had an inhibition in data set [2] below 60%. Further, the IC50 on Cholinesterase was 1.33 µM.

For `O=C1c2ccccc2C(=O)N1CCCCCCCCNC1CCN(Cc2cccc(Cl)c2)CC1`, the inhibition is below 60% in data set [2] and “Dose-dependent effect” in [7]. In addition, the result in the data set on Mus musculus [6] and in the data set with Mus musculus [8] was Active. Also, the Activity result is listed as “Toxic” in the data set with Mus musculus [9]; “Non-toxic” in the data set with Mus musculus [10]; “Non-toxic” in the data set with Mus musculus [11]; “Toxic” with Mus musculus [12]; 38% with Mus musculus [13]. Also, the midpoint of inhibition against Cholinesterase, the IC50, lay at 0.72 µM.

As usually defined, the inhibition is the share of the control response that was lost under treatment. One may read the IC50 as the point on the concentration scale where inhibition reaches its midpoint.
